Source: US10517889B2, “Modulators of SMAD7 expression” (Ionis Pharmaceuticals, Inc., priority 2017, dated 2019)
Strand notation (5' to 3'): a small letter for the sugar, then the base; units joined by * are phosphorothioate-linked, units joined directly phosphodiester-linked; [ ] holds rarer units or linkages, { } end groups; capitals alone tell only the bases. k = constrained ethyl (cEt); [5mC] = 5-methylcytosine; d = 2'-deoxy (DNA)

The substances below were run on human SMAD7 mRNA (assay: Antisense inhibition of human SMAD7 mRNA expression in Hep3B cells by 3-10-3 cEt gapmers, 10,000 nM, electroporation (Example 2)). Conditions: Hep3B cells, electroporation with 10,000 nM antisense oligonucleotide, approximately 24 hours, RTS5062, percent inhibition of SMAD7 mRNA relative to untreated control cells.
Type: cell-based
Summary of the method: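 Hep3B cells (20,000 per well) were electroporated with 10,000 nM 16-mer 3-10-3 cEt gapmer (phosphorothioate, 5-methylcytosine). After about 24 h, SMAD7 mRNA was quantified by qRT-PCR with primer probe set RTS5062, normalised to RIBOGREEN total RNA, and expressed as percent inhibition versus untreated cells.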

“799514 (antisense kT*k[5mC]*kG*dG*dA*dG*dT*dT*dT*d[5mC]*d[5mC]*dT*d[5mC]*kA*k[5mC]*kT) [compound 799514]” was tested, and the “% Inhibition” value was 40%.

Same assay, conditions: Hep3B cells, electroporation with 10,000 nM antisense oligonucleotide, approximately 24 hours, SMAD7 mRNA by RT-PCR (RTS5062), relative to untreated control cells

Going from “799466 (antisense kG*kA*k[5mC]*dA*dG*dA*dA*dG*d[5mC]*dT*d[5mC]*dT*dA*kG*kG*k[5mC]) [compound 799466]” to “799468 (antisense kT*k[5mC]*kA*d[5mC]*d[5mC]*dT*dT*dA*dG*dG*d[5mC]*d[5mC]*dT*kG*kT*kG) [compound 799468]”, the “% Inhibition” value falls from 53% to 22%.

First: 799469 (antisense k[5mC]*kT*k[5mC]*d[5mC]*dG*d[5mC]*dA*dT*dA*dG*dA*d[5mC]*dA*kG*kA*kT) [compound 799469]
Second: 799470 (antisense kA*kA*kA*dA*dG*d[5mC]*dT*d[5mC]*d[5mC]*dG*d[5mC]*dA*dT*kA*kG*kA) [compound 799470]
The “% Inhibition” value of the first is higher: 69% for the first, 10% for the second.

Compared with “799472 (antisense kA*kG*k[5mC]*d[5mC]*dA*dT*dA*d[5mC]*d[5mC]*dT*d[5mC]*d[5mC]*dA*kT*k[5mC]*kT) [compound 799472]”, “799473 (antisense kT*kA*kT*d[5mC]*d[5mC]*d[5mC]*dA*dT*dG*dG*d[5mC]*dT*d[5mC]*kT*k[5mC]*kA) [compound 799473]” is higher in “% Inhibition” value: 31% for the first, 63% for the second.

First: 799474 (antisense k[5mC]*kA*kA*dG*dA*dG*dT*d[5mC]*d[5mC]*dA*dG*d[5mC]*d[5mC]*k[5mC]*kT*kA) [compound 799474]
Second: 799475 (antisense kG*kT*kG*dA*dG*d[5mC]*dT*dG*dG*dG*d[5mC]*dT*dA*kT*kT*k[5mC]) [compound 799475]
The “% Inhibition” value of the first is lower: 39% for the first, 51% for the second.

“799485 (antisense kA*kG*k[5mC]*d[5mC]*dA*d[5mC]*dT*d[5mC]*d[5mC]*d[5mC]*d[5mC]*dG*d[5mC]*k[5mC]*kA*k[5mC]) [compound 799485]” and “799487 (antisense kA*kA*kA*d[5mC]*dA*dT*dA*dA*dT*dG*dA*d[5mC]*dT*kT*kA*kT) [compound 799487]” are the same in “% Inhibition” value: 0% for the first, 0% for the second.

First: 799488 (antisense kT*kG*kG*dA*dA*dG*dA*d[5mC]*dA*d[5mC]*d[5mC]*d[5mC]*d[5mC]*k[5mC]*kA*k[5mC]) [compound 799488]
Second: 799489 (antisense kT*k[5mC]*kT*dA*dA*dA*d[5mC]*d[5mC]*dA*dT*dT*dT*dT*kG*kA*kT) [compound 799489]
The “% Inhibition” value of the first is higher: 42% for the first, 0% for the second.

Going from “799490 (antisense kT*kT*kA*dA*dA*dT*dG*dG*dT*dG*dT*dA*dT*kA*k[5mC]*k[5mC]) [compound 799490]” to “799491 (antisense kG*kG*k[5mC]*dA*dG*dG*d[5mC]*dA*dG*dG*dA*dA*dA*kT*kG*kG) [compound 799491]”, the “% Inhibition” value rises from 0% to 38%.

Compared with “799492 (antisense kA*kA*kA*d[5mC]*dA*dA*dT*dA*dG*dA*dG*dG*d[5mC]*kA*kG*kG) [compound 799492]”, “799493 (antisense kA*kT*kA*d[5mC]*dA*d[5mC]*dT*dT*dA*dA*dT*d[5mC]*dA*kA*kA*k[5mC]) [compound 799493]” is lower in “% Inhibition” value: 58% for the first, 1% for the second.

First: 799494 (antisense kA*kG*kG*dA*dT*dA*d[5mC]*dA*d[5mC]*dT*dT*dA*dA*kT*k[5mC]*kA) [compound 799494]
Second: 799505 (antisense k[5mC]*k[5mC]*k[5mC]*dG*dG*d[5mC]*dT*dA*dA*dG*dG*dA*dA*kA*kG*kG) [compound 799505]
The “% Inhibition” value of the first is higher: 45% for the first, 31% for the second.

Going from “799506 (antisense kG*kG*kA*dG*dA*dG*d[5mC]*d[5mC]*d[5mC]*dG*dG*d[5mC]*dT*kA*kA*kG) [compound 799506]” to “799507 (antisense kA*k[5mC]*kT*d[5mC]*dA*dT*dT*dA*dG*dT*d[5mC]*d[5mC]*d[5mC]*kA*kT*kG) [compound 799507]”, the “% Inhibition” value rises from 4% to 34%.

First: 799508 (antisense kG*k[5mC]*kA*dA*dT*dT*dA*dA*dA*dG*d[5mC]*dA*dA*kA*kA*k[5mC]) [compound 799508]
Second: 799510 (antisense kG*kA*kG*dA*dA*dA*d[5mC]*dA*dG*dT*d[5mC]*dT*d[5mC]*k[5mC]*kA*k[5mC]) [compound 799510]
The “% Inhibition” value of the first is lower: 0% for the first, 57% for the second.

Compared with “799512 (antisense kG*kT*kT*dA*dA*dT*dG*dA*dG*dG*dA*dT*dA*kA*kT*kG) [compound 799512]”, “799513 (antisense kT*kA*k[5mC]*d[5mC]*dT*dT*dT*dA*dG*dA*dT*dT*dG*k[5mC]*kA*kT) [compound 799513]” is higher in “% Inhibition” value: 16% for the first, 66% for the second.

Same assay, conditions: Hep3B cells, electroporation with 10,000 nM antisense oligonucleotide, approximately 24 hours, primer probe set RTS5062, relative to untreated control cells

Going from “799461 (antisense k[5mC]*kT*kG*d[5mC]*dG*dA*dG*dA*dG*dA*dA*dA*dA*kA*kG*kA) [compound 799461]” to “799462 (antisense kA*kA*kG*d[5mC]*dA*d[5mC]*dT*dA*dG*dG*dT*dT*d[5mC]*kT*kG*k[5mC]) [compound 799462]”, the “% inhibition of SMAD7 mRNA expression” value falls from 62% to 43%.

First: 799463 (antisense kT*kG*kG*dT*dA*dA*dG*d[5mC]*dA*d[5mC]*dT*dA*dG*kG*kT*kT) [compound 799463]
Second: 799464 (antisense kA*kA*kG*d[5mC]*dA*d[5mC]*dT*dT*dG*dG*dT*dA*dA*kG*k[5mC]*kA) [compound 799464]
The “% inhibition of SMAD7 mRNA expression” value of the first is lower: 33% for the first, 40% for the second.

First: 799465 (antisense kA*kG*k[5mC]*dT*d[5mC]*dT*dA*dG*dG*d[5mC]*d[5mC]*dA*d[5mC]*kT*k[5mC]*k[5mC]) [compound 799465]
Second: 799476 (antisense kG*k[5mC]*kT*d[5mC]*dA*dA*dA*dG*dG*dG*d[5mC]*d[5mC]*dA*k[5mC]*k[5mC]*k[5mC]) [compound 799476]
The “% inhibition of SMAD7 mRNA expression” value of the first is higher: 64% for the first, 0% for the second.

Compared with “799477 (antisense kG*kT*kT*d[5mC]*d[5mC]*dA*dT*dA*dG*dG*d[5mC]*dA*dG*k[5mC]*k[5mC]*kA) [compound 799477]”, “799478 (antisense k[5mC]*k[5mC]*k[5mC]*dT*dA*d[5mC]*d[5mC]*dA*d[5mC]*d[5mC]*d[5mC]*d[5mC]*dT*kG*kT*kG) [compound 799478]” is higher in “% inhibition of SMAD7 mRNA expression” value: 4% for the first, 17% for the second.

Going from “799479 (antisense kT*kG*k[5mC]*d[5mC]*d[5mC]*dT*dT*d[5mC]*dT*dG*d[5mC]*dA*dG*kT*kG*kG) [compound 799479]” to “799480 (antisense k[5mC]*kA*k[5mC]*dA*d[5mC]*dA*dG*dG*d[5mC]*dA*dA*d[5mC]*d[5mC]*kA*k[5mC]*kA) [compound 799480]”, the “% inhibition of SMAD7 mRNA expression” value rises from 24% to 45%.

Going from “799481 (antisense k[5mC]*kT*k[5mC]*d[5mC]*dA*d[5mC]*dA*d[5mC]*dA*dG*dG*d[5mC]*dA*kA*k[5mC]*k[5mC]) [compound 799481]” to “799482 (antisense kG*kA*kA*dA*dA*dG*d[5mC]*d[5mC]*dG*dG*dG*d[5mC]*dA*kT*k[5mC]*kT) [compound 799482]”, the “% inhibition of SMAD7 mRNA expression” value falls from 34% to 30%.

Going from “799483 (antisense k[5mC]*kA*kA*dA*dG*dG*dA*dA*dA*dA*dG*d[5mC]*d[5mC]*kG*kG*kG) [compound 799483]” to “799484 (antisense k[5mC]*kG*k[5mC]*d[5mC]*dA*d[5mC]*d[5mC]*dT*dT*dT*dG*dG*d[5mC]*kT*kG*kG) [compound 799484]”, the “% inhibition of SMAD7 mRNA expression” value falls from 35% to 0%.

Going from “799495 (antisense k[5mC]*kT*kA*dA*d[5mC]*dA*dG*dG*dA*dA*dT*dA*dT*kA*k[5mC]*kA) [compound 799495]” to “799497 (antisense kA*kA*kG*dA*dA*d[5mC]*dT*d[5mC]*dT*d[5mC]*d[5mC]*dT*dA*kA*kG*k[5mC]) [compound 799497]”, the “% inhibition of SMAD7 mRNA expression” value falls from 25% to 0%.

Same assay, conditions: Hep3B cells, electroporation, 10,000 nM antisense oligonucleotide, approximately 24 hours, RTS5062, relative to untreated control cells

First: 799498 (antisense kT*k[5mC]*kA*dA*dG*dA*dA*d[5mC]*dT*d[5mC]*dT*d[5mC]*d[5mC]*kT*kA*kA) [compound 799498]
Second: 799499 (antisense kT*k[5mC]*k[5mC]*dT*dT*dT*dA*dG*dT*dG*dG*d[5mC]*d[5mC]*kT*kA*k[5mC]) [compound 799499]
The “% inhibition of SMAD7 mRNA expression” value of the first is lower: 31% for the first, 54% for the second.

Compared with “799500 (antisense kG*kA*kG*d[5mC]*dA*dG*dA*d[5mC]*dG*dG*dG*d[5mC]*dA*kA*kG*kT) [compound 799500]”, “799501 (antisense kA*kA*kA*dA*dG*dA*dG*d[5mC]*dA*dG*dA*d[5mC]*dG*kG*kG*k[5mC]) [compound 799501]” is lower in “% inhibition of SMAD7 mRNA expression” value: 28% for the first, 0% for the second.

First: 799502 (antisense k[5mC]*kA*kA*dA*dT*dA*dG*dG*dA*dA*dA*dG*d[5mC]*k[5mC]*kA*kA) [compound 799502]
Second: 799503 (antisense kG*kG*k[5mC]*d[5mC]*dA*d[5mC]*d[5mC]*dA*dG*dG*dA*d[5mC]*dA*kA*kT*kG) [compound 799503]
The “% inhibition of SMAD7 mRNA expression” value of the first is higher: 31% for the first, 0% for the second.

Compared with “799504 (antisense kA*kG*kG*dA*dA*dA*dG*dG*dT*dG*d[5mC]*dT*dG*k[5mC]*k[5mC]*k[5mC]) [compound 799504]”, “799515 (antisense k[5mC]*k[5mC]*k[5mC]*d[5mC]*dA*dG*dA*d[5mC]*d[5mC]*dT*dG*d[5mC]*dT*kA*kA*kG) [compound 799515]” is higher in “% inhibition of SMAD7 mRNA expression” value: 15% for the first, 38% for the second.

“799516 (antisense k[5mC]*kA*k[5mC]*d[5mC]*dA*dG*dA*dT*d[5mC]*dA*dA*dG*dA*k[5mC]*kA*kG) [compound 799516]” and “799517 (antisense k[5mC]*kT*kT*dA*dA*dG*dT*dA*dG*dA*dG*d[5mC]*dA*kA*kA*kG) [compound 799517]” are the same in “% inhibition of SMAD7 mRNA expression” value: 0% for the first, 0% for the second.
